From ChEMBL document CHEMBL1201862, “PubChem BioAssay data set” (2004)
The source made the active and inactive calls. For most assays here, no stated cut-off is given here; in the data, actives have a measured EC50 and inactives only a lower limit.

molecular target: T1, Protein RecA (Mycobacterium tuberculosis, UniProt P9WHJ3); test: Fluorescence Cell-Free Homogeneous Dose Retest to Identify Inhibitors of RecA-Intein Splicing Activity. [Related pubchem assays (depositor defined):AID2097, AID2223, AID489010, AID492950]; format: functional
T1 sequence (P9WHJ3 whole entry): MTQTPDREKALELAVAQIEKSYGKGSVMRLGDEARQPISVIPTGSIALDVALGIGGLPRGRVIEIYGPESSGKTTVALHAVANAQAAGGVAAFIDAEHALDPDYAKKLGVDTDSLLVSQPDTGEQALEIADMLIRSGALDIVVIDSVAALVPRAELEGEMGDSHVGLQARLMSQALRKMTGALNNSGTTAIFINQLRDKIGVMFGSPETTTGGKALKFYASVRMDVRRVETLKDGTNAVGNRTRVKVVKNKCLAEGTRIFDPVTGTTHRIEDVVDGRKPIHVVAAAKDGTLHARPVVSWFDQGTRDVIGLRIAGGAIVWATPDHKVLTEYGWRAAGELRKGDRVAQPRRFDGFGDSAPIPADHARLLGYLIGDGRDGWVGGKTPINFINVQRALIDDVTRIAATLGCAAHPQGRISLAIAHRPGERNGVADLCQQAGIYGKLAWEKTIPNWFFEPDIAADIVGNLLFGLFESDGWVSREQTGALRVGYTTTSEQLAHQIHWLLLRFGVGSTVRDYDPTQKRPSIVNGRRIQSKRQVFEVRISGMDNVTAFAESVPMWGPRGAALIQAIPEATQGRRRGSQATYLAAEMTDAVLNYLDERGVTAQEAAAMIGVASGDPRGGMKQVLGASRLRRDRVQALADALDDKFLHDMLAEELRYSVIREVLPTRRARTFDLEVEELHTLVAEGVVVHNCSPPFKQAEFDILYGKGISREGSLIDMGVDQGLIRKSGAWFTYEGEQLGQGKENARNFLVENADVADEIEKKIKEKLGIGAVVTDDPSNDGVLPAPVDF

SMILES	EC50
O=C1C(Nc2ccc(O)cc2)=C/C(=N/S(=O)(=O)c2cccs2)c2ccccc21	123 nM (active)
COc1ccc(S(=O)(=O)Nc2cc(SCC(=O)O)c(O)c3ccccc23)cc1	234 nM (active)
CCc1nnc(NS(=O)(=O)c2ccc(NC(=S)NC(=O)/C=C/c3ccc(C(C)C)cc3)cc2)s1	33400 nM (active)
CC1CC(=O)c2c(cc3c(-c4c(O)cc(O)c5c(O)c6c(cc45)OC(C)CC6=O)c(O)cc(O)c3c2O)O1 (stereo unspecified) [CEPHALOCHROMIN]	1570 nM (active)
COC(=O)C(O)(c1c(C)[nH]n(-c2ccccc2)c1=O)C(F)(F)F (stereo unspecified)	3740 nM (active)

molecular target: T2, Tyrosyl-DNA phosphodiesterase 2 (Homo sapiens, UniProt O95551); test: potency against TDP2 phosphodiesterase activity – biochemical, epi absorbance, IC50, dose response (AID 743297)
T2 sequence (O95551 whole entry): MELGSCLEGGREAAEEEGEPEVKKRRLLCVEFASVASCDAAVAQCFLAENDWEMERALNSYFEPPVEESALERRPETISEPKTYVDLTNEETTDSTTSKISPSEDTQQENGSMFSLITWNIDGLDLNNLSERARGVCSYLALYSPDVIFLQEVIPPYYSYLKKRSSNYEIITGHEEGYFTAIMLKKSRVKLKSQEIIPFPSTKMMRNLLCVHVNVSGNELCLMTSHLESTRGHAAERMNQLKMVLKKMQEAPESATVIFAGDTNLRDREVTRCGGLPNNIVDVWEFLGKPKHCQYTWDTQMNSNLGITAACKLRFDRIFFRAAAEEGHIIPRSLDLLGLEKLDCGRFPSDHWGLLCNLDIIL

SMILES	IC50
O=C1C(Nc2ccc(O)cc2)=C/C(=N/S(=O)(=O)c2cccs2)c2ccccc21	698 nM (active)
COc1ccc(S(=O)(=O)Nc2cc(SCC(=O)O)c(O)c3ccccc23)cc1	75900 nM (inactive)
COC(=O)C(O)(c1c(C)[nH]n(-c2ccccc2)c1=O)C(F)(F)F (stereo unspecified)	12700 nM (inactive)

tested on: Streptococcus sp. 'group A'; test: Streptococcus pyogenes SK(-)GAS viability under kanamycin – luminescence, BacTiterGlo, confirmation, counter-screen for streptokinase expression inhibitor project, dose response (AID 1900); format: functional, organism-based

SMILES	EC50
O=C1C(Nc2ccc(O)cc2)=C/C(=N/S(=O)(=O)c2cccs2)c2ccccc21	1680 nM (active)
CCc1nnc(NS(=O)(=O)c2ccc(NC(=S)NC(=O)/C=C/c3ccc(C(C)C)cc3)cc2)s1	2390 nM (active)
CC1CC(=O)c2c(cc3c(-c4c(O)cc(O)c5c(O)c6c(cc45)OC(C)CC6=O)c(O)cc(O)c3c2O)O1 (stereo unspecified) [CEPHALOCHROMIN]	348 nM (active)

molecular target: Genome polyprotein (dengue virus type 2, UniProt P29990); test: flavivirus cap methylation enzyme inhibition – biochemical, confirmation dose response, primary screen (AID 588689); format: functional
Sequence (P29990 2492-3391 limits assumed): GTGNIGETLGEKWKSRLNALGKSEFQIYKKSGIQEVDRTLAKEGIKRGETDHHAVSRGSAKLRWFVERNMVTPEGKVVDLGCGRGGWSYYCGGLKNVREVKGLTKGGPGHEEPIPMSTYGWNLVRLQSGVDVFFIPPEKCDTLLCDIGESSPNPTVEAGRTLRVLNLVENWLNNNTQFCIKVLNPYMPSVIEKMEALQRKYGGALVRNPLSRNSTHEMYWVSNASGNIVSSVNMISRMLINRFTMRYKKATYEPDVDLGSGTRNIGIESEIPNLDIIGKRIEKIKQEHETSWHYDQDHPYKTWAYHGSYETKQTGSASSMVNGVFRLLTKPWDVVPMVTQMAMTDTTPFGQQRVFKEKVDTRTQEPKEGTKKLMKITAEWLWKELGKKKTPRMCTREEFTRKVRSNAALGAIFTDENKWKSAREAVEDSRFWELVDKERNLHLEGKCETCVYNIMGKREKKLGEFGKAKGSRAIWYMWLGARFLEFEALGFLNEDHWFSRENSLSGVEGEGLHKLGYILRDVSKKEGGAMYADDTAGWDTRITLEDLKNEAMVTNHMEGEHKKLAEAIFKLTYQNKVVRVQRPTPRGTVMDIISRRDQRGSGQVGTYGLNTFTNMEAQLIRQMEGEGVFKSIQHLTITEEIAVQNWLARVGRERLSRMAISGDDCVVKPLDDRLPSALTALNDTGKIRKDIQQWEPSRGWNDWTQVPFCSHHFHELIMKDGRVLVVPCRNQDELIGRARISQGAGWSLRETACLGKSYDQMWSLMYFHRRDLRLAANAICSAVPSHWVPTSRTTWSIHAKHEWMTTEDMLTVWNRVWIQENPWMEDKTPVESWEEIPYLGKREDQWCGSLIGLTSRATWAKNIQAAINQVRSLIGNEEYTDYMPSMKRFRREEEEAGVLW

SMILES	IC50
COc1ccc(S(=O)(=O)Nc2cc(SCC(=O)O)c(O)c3ccccc23)cc1	7220 nM (active)
CCc1nnc(NS(=O)(=O)c2ccc(NC(=S)NC(=O)/C=C/c3ccc(C(C)C)cc3)cc2)s1	50000 nM (active)

molecular target: T3, Streptokinase A (Streptococcus pyogenes serotype M1, UniProt P10520); test: viability-normalized secreted streptokinase activity reduction – plasminogen activation absorbance, OD405, dose response (AID 1914); format: functional, Streptococcus pyogenes M1 GAS;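 further: secreted streptokinase activity via plasminogen activation per viability signal from cell pellet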
T3 sequence (P10520 whole entry): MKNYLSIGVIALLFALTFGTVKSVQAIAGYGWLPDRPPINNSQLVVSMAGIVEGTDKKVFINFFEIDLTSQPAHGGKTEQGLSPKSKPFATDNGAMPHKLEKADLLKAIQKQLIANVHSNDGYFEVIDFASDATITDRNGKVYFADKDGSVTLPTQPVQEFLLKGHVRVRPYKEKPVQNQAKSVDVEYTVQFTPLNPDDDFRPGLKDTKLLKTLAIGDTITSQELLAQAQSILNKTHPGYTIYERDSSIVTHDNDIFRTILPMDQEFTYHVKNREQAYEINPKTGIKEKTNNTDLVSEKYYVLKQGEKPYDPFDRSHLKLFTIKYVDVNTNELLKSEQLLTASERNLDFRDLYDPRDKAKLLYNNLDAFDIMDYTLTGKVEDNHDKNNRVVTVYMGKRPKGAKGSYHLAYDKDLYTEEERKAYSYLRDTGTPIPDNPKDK

SMILES	EC50
O=C1C(Nc2ccc(O)cc2)=C/C(=N/S(=O)(=O)c2cccs2)c2ccccc21	> 150000 nM (not active)
CCc1nnc(NS(=O)(=O)c2ccc(NC(=S)NC(=O)/C=C/c3ccc(C(C)C)cc3)cc2)s1	4440 nM (active)
CC1CC(=O)c2c(cc3c(-c4c(O)cc(O)c5c(O)c6c(cc45)OC(C)CC6=O)c(O)cc(O)c3c2O)O1 (stereo unspecified) [CEPHALOCHROMIN]	> 150000 nM (not active)

tested on: not listed separately; test: NIH3T3 cell viability loss – ATP luminescence, mouse fibroblasts, counter-screen, dose response (AID 2010); format: functional, cell-based;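 further: cells exposed to compound for about 90 hours before reading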

SMILES	EC50
O=C1C(Nc2ccc(O)cc2)=C/C(=N/S(=O)(=O)c2cccs2)c2ccccc21	486 nM (active)
CC1CC(=O)c2c(cc3c(-c4c(O)cc(O)c5c(O)c6c(cc45)OC(C)CC6=O)c(O)cc(O)c3c2O)O1 (stereo unspecified) [CEPHALOCHROMIN]	8420 nM (active)

tested on: Streptococcus; test: GAS UMAA2166 growth inhibition – luminescence, BacTiterGlo, counter-screen for streptokinase expression inhibitor project, dose response (AID 1915); format: functional, organism-based;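 further: potency for reduction of bacterial viability or growth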

SMILES	EC50
O=C1C(Nc2ccc(O)cc2)=C/C(=N/S(=O)(=O)c2cccs2)c2ccccc21	7100 nM (active)
CCc1nnc(NS(=O)(=O)c2ccc(NC(=S)NC(=O)/C=C/c3ccc(C(C)C)cc3)cc2)s1	7830 nM (active)
CC1CC(=O)c2c(cc3c(-c4c(O)cc(O)c5c(O)c6c(cc45)OC(C)CC6=O)c(O)cc(O)c3c2O)O1 (stereo unspecified) [CEPHALOCHROMIN]	991 nM (active)

molecular target: T4, Replicative DNA helicase DnaB (Mycobacterium tuberculosis, UniProt P9WMR3); test: DnaB intein splicing inhibitors, dose response, biochemical, cell-free fluorescence (AID 449749); format: functional
T4 sequence (P9WMR3 whole entry): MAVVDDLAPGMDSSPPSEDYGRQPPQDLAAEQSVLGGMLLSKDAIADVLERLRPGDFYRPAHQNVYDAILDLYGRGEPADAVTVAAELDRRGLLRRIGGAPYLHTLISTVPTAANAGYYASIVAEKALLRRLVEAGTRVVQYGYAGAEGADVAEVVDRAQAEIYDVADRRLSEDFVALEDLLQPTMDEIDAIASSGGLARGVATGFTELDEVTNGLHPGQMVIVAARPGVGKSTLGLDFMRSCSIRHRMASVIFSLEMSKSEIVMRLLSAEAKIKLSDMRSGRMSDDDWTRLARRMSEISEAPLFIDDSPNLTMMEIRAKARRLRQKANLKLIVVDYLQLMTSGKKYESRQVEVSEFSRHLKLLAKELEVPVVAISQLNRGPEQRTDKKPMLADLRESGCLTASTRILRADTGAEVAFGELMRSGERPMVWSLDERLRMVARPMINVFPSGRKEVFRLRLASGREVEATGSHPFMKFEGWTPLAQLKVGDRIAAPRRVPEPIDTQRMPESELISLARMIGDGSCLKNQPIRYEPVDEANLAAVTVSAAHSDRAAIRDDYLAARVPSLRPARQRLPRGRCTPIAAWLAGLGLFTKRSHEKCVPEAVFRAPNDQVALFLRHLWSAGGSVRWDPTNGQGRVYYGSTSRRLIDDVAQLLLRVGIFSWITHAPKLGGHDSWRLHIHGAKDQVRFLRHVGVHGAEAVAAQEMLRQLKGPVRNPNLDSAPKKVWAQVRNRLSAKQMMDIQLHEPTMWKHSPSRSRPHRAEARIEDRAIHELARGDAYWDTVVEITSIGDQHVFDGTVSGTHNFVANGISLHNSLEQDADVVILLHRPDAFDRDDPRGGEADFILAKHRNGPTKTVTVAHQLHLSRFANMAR

SMILES	AC50
O=C1C(Nc2ccc(O)cc2)=C/C(=N/S(=O)(=O)c2cccs2)c2ccccc21	128 nM (active)
COc1ccc(S(=O)(=O)Nc2cc(SCC(=O)O)c(O)c3ccccc23)cc1	885 nM (active)
CCc1nnc(NS(=O)(=O)c2ccc(NC(=S)NC(=O)/C=C/c3ccc(C(C)C)cc3)cc2)s1	3150 nM (active)
CC1CC(=O)c2c(cc3c(-c4c(O)cc(O)c5c(O)c6c(cc45)OC(C)CC6=O)c(O)cc(O)c3c2O)O1 (stereo unspecified) [CEPHALOCHROMIN]	1780 nM (active)
COC(=O)C(O)(c1c(C)[nH]n(-c2ccccc2)c1=O)C(F)(F)F (stereo unspecified)	< 18 nM (active)
